In paper PMC4738305, “Metabolism and Disposition of Aditoprim in Swine, Broilers, Carp and Rats” (Scientific Reports, 2016):
Several values for one entry are separate records, joined by “and”; a condition that tells them apart may be missing. Equal entries are not always repeated.

Experiment: Tissue distribution and elimination of total radioactivity (total residues) after oral ^3H-ADP for 7 d
Assay type: in vivo, carp
Design: Ke of total residues: unit not given here
Protocol: (0.1 Ci/g) through oral gavage for 7 consecutive days. All the animals were housed on the basis of their group in the cages or aquaria throughout the whole study period. A group of animals was slaughtered through exsanguination under diethyl ether inhalation of anesthesia in the period of 6 h, 1, 3, 7, 14, and 21 d after the administration. The blood samples were immediately collected into the heparinized tubes and was centrifuged at 1920 × g at 4 °C for 10 min to obtain the plasma. The tissues from the heart, liver, spleen, lung, kidney, craw (broilers), stomach, intestine, fat, skin, muscle, thymus, pancreas, bile, bladder, hair (scale for carp), genital gland, adrenal glands, swim bladder (carp), brain, lymph, and bursa (broilers) were carefully excised and collected. The tissues were thoroughly rinsed with the deionized water to remove the residuary blood, blotted to dryness, and finally to perform the homogenization. In order to avoid cross-contamination the dissecting instruments were washed during the tissue procurements. The blank tissues were collected in order to provide control matrices. The total radioactivity levels in each sample were determined through LSC. The samples extracted from the plasma, bile, and tissues of the liver, kidney, muscle, and fat/skin were analyzed through LC/MS-IT-TOF and v. ARC radiometric detection for metabolite profiling.
Measurements of the total radioactivity in each sample were conducted by Packard Tri-Carb 2900 TR liquid scintillation counter (PerkinElmer Life and Analytical Sciences). The detection time was 10 min for two cycles. The scintillation counter data were automatically corrected for counting efficiency by instrument-stored quench curve which was drawn with a series of sealed quenched […] standards. The actual radioactivity of each sample was calculated by subtracting the background value form the mean radioactivity in two blank samples. All the samples were analyzed in duplicate if the sample size allowed this. If the results were differed by more than 10% from the mean value, the samples were reanalyzed. The samples with LSC counts less than 2-fold of the level of the running background were considered to contain insufficient radioactivity for reliable quantification.
Aliquots of liquid samples (urine, plasma, bile and raised water, 200 μL) were mixed with 10 mL of Ultima Gold^TM scintillation fluid for the direct analysis by LSC. Aliquots of solid samples (feces and tissues, 200 mg) were digested overnight with 2 mL tissue solubilizer at 50 °C in a shaking water bath, followed by adding 200 μL of 0.1 mol/L EDTA-Na and 200 μL of 30% H2O2, and was bathed at 50 °C for 2 h to bleach. The obtained transparent liquid were mixed with 10 mL of scintillation fluid and finally were counted by LSC. The digestion efficiency was determined by using the blank samples spiked with ^3 H standard for digestion, and the measured radioactivity content in the digested samples were adjusted by using the digestion efficiency values.
The concentrations of ADP and/or its metabolites were analyzed by using the following equation: C = L/(2.22 × 10^9 × RM), where C is the concentration of ADP or/and its metabolites (mg/kg), L is the LSC count (dpm), R is the specific activity of the administered dose (0.1 Ci/g), and M is the weight or volume of samples (kg or L). The results are expressed as mean ± SD. The elimination kinetics of terminal phase for ADP and its metabolites were conducted by using the WinNonlin linear regression program (Pharsight corporation, Statistical consultants, Inc., Kentucky, USA).

[3H]c1c(Cc2cnc(N)nc2N)cc(OC)c(N(C)C)c1OC [^3H-ADP]
Ke of total residues (carp Bile): 0.38
Concentrations of total residues (carp Bile, 0.25 d after 5 mg/kg b. w. for 7 days): 334.6 ± 69.0 mg/kg and 334.60 ± 69.02 mg/kg
Concentrations of total residues (carp Bile, 1 d after 5 mg/kg b. w. for 7 days): 89.59 ± 3.87 mg/kg
Concentrations of total residues (carp Bile, 3 d after 5 mg/kg b. w. for 7 days): 24.33 ± 1.91 mg/kg
Concentrations of total residues (carp Bile, 7 d after 5 mg/kg b. w. for 7 days): 1.34 ± 0.29 mg/kg
Concentrations of total residues (carp Bile, 14 d after 5 mg/kg b. w. for 7 days): 0.13 ± 0.05 mg/kg
Concentrations of total residues (carp Bile, 21 d after 5 mg/kg b. w. for 7 days): 0.01 ± 0.00 mg/kg
Ke of total residues (carp Blood): 0.20
Concentrations of total residues (carp Blood, 0.25 d after 5 mg/kg b. w. for 7 days): 1.73 ± 0.18 mg/kg
Concentrations of total residues (carp Blood, 1 d after 5 mg/kg b. w. for 7 days): 1.06 ± 0.10 mg/kg
Concentrations of total residues (carp Blood, 3 d after 5 mg/kg b. w. for 7 days): 0.40 ± 0.08 mg/kg
Concentrations of total residues (carp Blood, 7 d after 5 mg/kg b. w. for 7 days): 0.19 ± 0.02 mg/kg
Concentrations of total residues (carp Blood, 14 d after 5 mg/kg b. w. for 7 days): 0.05 ± 0.01 mg/kg
Ke of total residues (carp Branchia): 0.23
Concentrations of total residues (carp Branchia, 0.25 d after 5 mg/kg b. w. for 7 days): 12.73 ± 1.93 mg/kg
Concentrations of total residues (carp Branchia, 1 d after 5 mg/kg b. w. for 7 days): 5.46 ± 0.84 mg/kg
Concentrations of total residues (carp Branchia, 3 d after 5 mg/kg b. w. for 7 days): 1.66 ± 0.08 mg/kg
Concentrations of total residues (carp Branchia, 7 d after 5 mg/kg b. w. for 7 days): 0.22 ± 0.04 mg/kg
Concentrations of total residues (carp Branchia, 14 d after 5 mg/kg b. w. for 7 days): 0.05 ± 0.00 mg/kg
Concentrations of total residues (carp Branchia, 21 d after 5 mg/kg b. w. for 7 days): 0.01 ± 0.00 mg/kg
Ke of total residues (carp Colla piscis): 0.24
Concentrations of total residues (carp Colla piscis, 0.25 d after 5 mg/kg b. w. for 7 days): 2.78 ± 0.76 mg/kg
Concentrations of total residues (carp Colla piscis, 1 d after 5 mg/kg b. w. for 7 days): 1.50 ± 0.22 mg/kg
Concentrations of total residues (carp Colla piscis, 3 d after 5 mg/kg b. w. for 7 days): 0.41 ± 0.04 mg/kg
Concentrations of total residues (carp Colla piscis, 7 d after 5 mg/kg b. w. for 7 days): 0.10 ± 0.02 mg/kg
Concentrations of total residues (carp Colla piscis, 14 d after 5 mg/kg b. w. for 7 days): 0.03 ± 0.01 mg/kg
Ke of total residues (carp Heart): 0.30
Concentrations of total residues (carp Heart, 0.25 d after 5 mg/kg b. w. for 7 days): 5.37 ± 0.50 mg/kg
Concentrations of total residues (carp Heart, 1 d after 5 mg/kg b. w. for 7 days): 2.58 ± 0.57 mg/kg
Concentrations of total residues (carp Heart, 3 d after 5 mg/kg b. w. for 7 days): 1.11 ± 0.08 mg/kg
Concentrations of total residues (carp Heart, 7 d after 5 mg/kg b. w. for 7 days): 0.34 ± 0.05 mg/kg
Concentrations of total residues (carp Heart, 14 d after 5 mg/kg b. w. for 7 days): 0.14 ± 0.02 mg/kg
Concentrations of total residues (carp Heart, 21 d after 5 mg/kg b. w. for 7 days): 0.01 ± 0.00 mg/kg
Ke of total residues (carp Intestine): 0.21
Concentrations of total residues (carp Intestine, 1 d after 5 mg/kg b. w. for 7 days): 5.35 ± 0.51 mg/kg
Concentrations of total residues (carp Intestine, 3 d after 5 mg/kg b. w. for 7 days): 1.85 ± 0.25 mg/kg
Concentrations of total residues (carp Intestine, 7 d after 5 mg/kg b. w. for 7 days): 0.42 ± 0.09 mg/kg
Concentrations of total residues (carp Intestine, 14 d after 5 mg/kg b. w. for 7 days): 0.16 ± 0.06 mg/kg
Ke of total residues (carp Kidney): 0.19
Concentrations of total residues (carp Kidney, 0.25 d after 5 mg/kg b. w. for 7 days): 47.64 ± 9.81 mg/kg
Concentrations of total residues (carp Kidney, 1 d after 5 mg/kg b. w. for 7 days): 8.30 ± 1.02 mg/kg
Concentrations of total residues (carp Kidney, 3 d after 5 mg/kg b. w. for 7 days): 3.83 ± 0.39 mg/kg
Concentrations of total residues (carp Kidney, 7 d after 5 mg/kg b. w. for 7 days): 1.57 ± 0.11 mg/kg
Concentrations of total residues (carp Kidney, 14 d after 5 mg/kg b. w. for 7 days): 0.72 ± 0.10 mg/kg
Concentrations of total residues (carp Kidney, 21 d after 5 mg/kg b. w. for 7 days): 0.10 ± 0.02 mg/kg
Ke of total residues (carp Liver): 0.10
Concentrations of total residues (carp Liver, 0.25 d after 5 mg/kg b. w. for 7 days): 15.59 ± 1.52 mg/kg
Concentrations of total residues (carp Liver, 3 d after 5 mg/kg b. w. for 7 days): 2.53 ± 0.21 mg/kg
Concentrations of total residues (carp Liver, 7 d after 5 mg/kg b. w. for 7 days): 0.40 ± 0.08 mg/kg
Concentrations of total residues (carp Liver, 14 d after 5 mg/kg b. w. for 7 days): 0.30 ± 0.05 mg/kg
Concentrations of total residues (carp Liver, 21 d after 5 mg/kg b. w. for 7 days): 0.09 ± 0.01 mg/kg
Ke of total residues (carp Muscle): 0.23
Concentrations of total residues (carp Muscle, 0.25 d after 5 mg/kg b. w. for 7 days): 2.26 ± 0.62 mg/kg
Concentrations of total residues (carp Muscle, 1 d after 5 mg/kg b. w. for 7 days): 1.96 ± 0.48 mg/kg
Concentrations of total residues (carp Muscle, 3 d after 5 mg/kg b. w. for 7 days): 0.96 ± 0.10 mg/kg
Concentrations of total residues (carp Muscle, 7 d after 5 mg/kg b. w. for 7 days): 0.43 ± 0.09 mg/kg
Concentrations of total residues (carp Muscle, 14 d after 5 mg/kg b. w. for 7 days): 0.08 ± 0.00 mg/kg
Ke of total residues (carp Roe): 0.16
Concentrations of total residues (carp Roe, 0.25 d after 5 mg/kg b. w. for 7 days): 4.74 ± 1.03 mg/kg
Concentrations of total residues (carp Roe, 1 d after 5 mg/kg b. w. for 7 days): 3.86 ± 0.76 mg/kg
Concentrations of total residues (carp Roe, 3 d after 5 mg/kg b. w. for 7 days): 2.24 ± 0.36 mg/kg
Concentrations of total residues (carp Roe, 7 d after 5 mg/kg b. w. for 7 days): 0.85 ± 0.40 mg/kg
Concentrations of total residues (carp Roe, 14 d after 5 mg/kg b. w. for 7 days): 0.47 ± 0.13 mg/kg
Concentrations of total residues (carp Roe, 21 d after 5 mg/kg b. w. for 7 days): 0.09 ± 0.01 mg/kg
Ke of total residues (carp Scales): 0.24
Concentrations of total residues (carp Scales, 0.25 d after 5 mg/kg b. w. for 7 days): 2.59 ± 0.32 mg/kg
Concentrations of total residues (carp Scales, 1 d after 5 mg/kg b. w. for 7 days): 2.01 ± 0.45 mg/kg
Concentrations of total residues (carp Scales, 3 d after 5 mg/kg b. w. for 7 days): 0.80 ± 0.04 mg/kg
Concentrations of total residues (carp Scales, 7 d after 5 mg/kg b. w. for 7 days): 0.29 ± 0.07 mg/kg
Concentrations of total residues (carp Scales, 14 d after 5 mg/kg b. w. for 7 days): 0.06 ± 0.01 mg/kg
Ke of total residues (carp Skin): 0.29
Concentrations of total residues (carp Skin, 0.25 d after 5 mg/kg b. w. for 7 days): 3.66 ± 0.62 mg/kg
Concentrations of total residues (carp Skin, 1 d after 5 mg/kg b. w. for 7 days): 2.82 ± 0.91 mg/kg
Concentrations of total residues (carp Skin, 3 d after 5 mg/kg b. w. for 7 days): 1.48 ± 0.16 mg/kg
Concentrations of total residues (carp Skin, 7 d after 5 mg/kg b. w. for 7 days): 0.87 ± 0.17 mg/kg
Concentrations of total residues (carp Skin, 14 d after 5 mg/kg b. w. for 7 days): 0.07 ± 0.01 mg/kg
Ke of total residues (carp Spleen): 0.23
Concentrations of total residues (carp Spleen, 0.25 d after 5 mg/kg b. w. for 7 days): 63.23 ± 2.89 mg/kg
Concentrations of total residues (carp Spleen, 1 d after 5 mg/kg b. w. for 7 days): 27.12 ± 4.89 mg/kg
Concentrations of total residues (carp Spleen, 3 d after 5 mg/kg b. w. for 7 days): 8.17 ± 0.59 mg/kg
Concentrations of total residues (carp Spleen, 7 d after 5 mg/kg b. w. for 7 days): 0.73 ± 0.17 mg/kg
Concentrations of total residues (carp Spleen, 14 d after 5 mg/kg b. w. for 7 days): 0.25 ± 0.05 mg/kg
Concentrations of total residues (carp Spleen, 21 d after 5 mg/kg b. w. for 7 days): 0.03 ± 0.00 mg/kg
